Measurements as given in article PMC8284454, “In Vitro Profiling of Antitubercular Compounds by Rapid, Efficient, and Nondestructive Assays Using Autoluminescent Mycobacterium tuberculosis” (Antimicrobial Agents and Chemotherapy, 2021).
≈ marks a conversion by molar mass, not a printed value. Like-named read-outs stand apart in the source and are kept apart here. Marks after values point to notes of the source that are not given here.

Columns and labels:
[1] = system: M. tuberculosis H37Rv_LuxABCDE; format: cell-based, Mycobacterium tuberculosis; details: 1:10,000-fold dilution; for PAE 10× MIC CFU/ml: 3 h exposure at 10× MIC; for PAE 100× MIC CFU/ml: 3 h exposure at 100× MIC
[2] = system: M. tuberculosis H37Rv_LuxABCDE; assay: MIC used to set PAE concentrations (Table 4); format: cell-based; details: Mycobacterium tuberculosis
From the text: TABLE 4 Comparison of post antibiotic effect values (h) obtained via CFU and RLU measurement for two established TB drugs (rifampin and isoniazid) and two emerging TB lead candidates (ecumicin and rufomycin)^a | column: MIC (μM)

[3] = system: M. tuberculosis H37Rv_LuxABCDE; assay: luminescence-based MBC assay (LMBCA) / time-kill; format: cell-based, Mycobacterium tuberculosis; details: for MBC: Mycobacterium tuberculosis, 99% reduction in RLU vs T0; for change of MBC values over time: over 21 days, luminescence time-kill; for time and/or concentration dependence of bactericidal activity: time-kill curves up to day 21
[4] = system: M. tuberculosis H37Rv_LuxABCDE; assay: postantibiotic effect by luminescence (RLU); format: cell-based, Mycobacterium tuberculosis; details: 1.5 log10 RLU increase, 1:10,000-fold dilution; for PAE 10× MIC RLU: 3 h exposure at 10× MIC; for PAE 100× MIC RLU: 3 h exposure at 100× MIC
[5] = system: J774-internalized M. tuberculosis (H37Rv); assay: intracellular activity by luminescence (EC90); format: cell-based, Mycobacterium tuberculosis; details: for EC90: RLU; for onset of growth inhibition of internalized M. tuberculosis: early = EC90 obtainable by day 3, late = EC90 obtainable by day 5 or later
[6] = system: M. tuberculosis H37Rv_LuxABCDE; assay: luminescence-based MIC assay (LMICA); details: 90% reduction of luminescence, 7 days, 7H12 medium; SD from three independent experiments
[7] = system: M. tuberculosis H37Rv_LuxABCDE; assay: microplate alamarBlue assay (MABA) MIC; details: 90% reduction of fluorescence, 7 days, 7H12 medium; SD from three independent experiments
[8] = system: M. tuberculosis H37Rv_LuxABCDE; assay: microbe, parasite or virus in culture; format: cell-based, Mycobacterium tuberculosis; details: Mycobacterium tuberculosis, day 7, SD from three independent experiments, read-out: MBC (±SD) via CFU
[9] = system: macrophage-internalized M. tuberculosis; details: EC90, high-content imaging on day 5; read-out: Literature reported EC90; cited from earlier work
[10] = 168 h, day 7, SD from three independent experiments, read-out: MBC (±SD) via luminescence
[11] = 336 h, day 14, read-out: MBC (±SD) by luminescence on day 14
[12] = 504 h, day 21, read-out: MBC (±SD) by luminescence on day 21
[13] = Mycobacterium tuberculosis, H37RV, 72 h, EC90, day 3, J774 macrophages, read-out: Intracellular activity, EC90 (±SD) Day 3
[14] = Mycobacterium tuberculosis, H37RV, 120 h, EC90, day 5, J774 macrophages, read-out: Intracellular activity, EC90 (±SD) Day 5
[15] = Mycobacterium tuberculosis, H37RV, 168 h, EC90, day 7, J774 macrophages, read-out: Intracellular activity, EC90 (±SD) Day 7

Structure (SMILES)	PAE 10× MIC CFU/ml [1]	PAE 100× MIC CFU/ml [1]	MIC [2]	MBC [3, 10]	MBC [3, 11]	MBC [3, 12]	change of MBC values over time [3]	time and/or concentration dependence of bactericidal activity [3]	PAE 10× MIC RLU [4]	PAE 100× MIC RLU [4]	EC90 [5, 13]	EC90 [5, 14]	EC90 [5, 15]	onset of growth inhibition of internalized M. tuberculosis [5]	MIC (±SD) LMICA [6]	MIC (±SD) MABA [7]	MBC [8]	EC90 [9]	further results
NNC(=O)c1ccncc1 [Isoniazid]	0 h	0 h	0.3 µM (≈ 0.0411 µg/mL)	0.57 µM (≈ 0.0782 µg/mL)	2.56 µM (≈ 0.351 µg/mL)	3.23 µM (≈ 0.443 µg/mL)	increase	mainly time dependent	0 h	0 h	> 8000 nM	1050 nM	520 nM	late growth inhibition	0.24 (0.08) μM	0.30 (0.05) μM	0.46 µM (≈ 0.0631 µg/mL)	1200 nM	PAE 1× MIC CFU/ml ([1]; 3 h exposure at 1× MIC): 0 h; PAE 100× MIC CFU/ml ([1]; listed as isoniazid): no observable PAE; Toxicity against infected J774, percent inhibition at the highest tested concentration (infected J774; day 7, 8 μM): 8 (0)* percent; PAE 1× MIC RLU ([4]; 3 h exposure at 1× MIC): 0 h; PAE 100× MIC RLU ([4]; listed as isoniazid): no observable PAE; inhibition at 8 µM ([5]; Mycobacterium tuberculosis, H37RV, 72 h, day 3, 8 μM, read-out: percent inhibition at the highest tested concentration, intracellular activity Day 3): 77%
CO[C@H]1/C=C/O[C@@]2(C)Oc3c(C)c(O)c4c(O)c(c(/C=N/N5CCN(C)CC5)c(O)c4c3C2=O)NC(=O)/C(C)=C\C=C\[C@H](C)[C@H](O)[C@@H](C)[C@@H](O)[C@@H](C)[C@H](OC(C)=O)[C@@H]1C [Rifampin]	30 h	58 h	0.04 µM (≈ 0.0329 µg/mL)	0.6 µM (≈ 0.494 µg/mL)	0.48 µM (≈ 0.395 µg/mL)	0.4 µM (≈ 0.329 µg/mL)	decreased	both time and concentration dependent	26 h	92 h	> 2000 nM	1550 nM	640 nM	late growth inhibition	0.041 (0.005) μM	0.060 (0.01) μM	0.4 µM (≈ 0.329 µg/mL)	2900 nM	Toxicity against infected J774, percent inhibition at the highest tested concentration (infected J774; day 7, 2 μM): 2 (0)* percent; inhibition at 2 µM ([5]; Mycobacterium tuberculosis, H37RV, 72 h, day 3, 2 μM, read-out: percent inhibition at the highest tested concentration, intracellular activity Day 3): 60%
